Data on one compound can be found in US12029731B2, “Acyl benzo[d]thiazol-2-amine and their methods of use” (Biohaven Pharmaceutical Holding Company Ltd., priority 2016, dated 2024).

“Also recorded” adds a separate entry of the source.

Experiment [1] has as its system Stage III and IV melanoma. Put plainly: Phase 0 human clinical trial of riluzole in melanoma patients. It counts as in vivo. The note with it: after only 14 days of treatment. An excerpt: We have recently shown that riluzole has dramatic anti-melanoma activity in vitro cellular assays, in mice and in a Phase 0 human clinical trial. […] However, the therapeutic utility of riluzole itself in ALS and eventually for melanoma is very constrained by rapid first-pass metabolism in the liver and an exceptionally high level of patient-to-patient variability in the extent of the Cyp1A2-mediated oxidative metabolism that is observed.

Experiment [2] deals with C8161 cells. The note with it: C8161 human melanoma cells; cited from earlier work.
In experiment [3] the test system is C8161 cells. To be noted: positive control, in comparison with no treatment and DMSO treated; cited from earlier work.

`Nc1nc2ccc(OC(F)(F)F)cc2s1` [riluzole]: in experiment [1], the “patients with clinical or radiologic evidence of tumor response” value was “four of 12; also recorded: four of twelve”. Further, the “effect on excess cellular glutamate” value in the experiment on C8161 cells [2] is given as “inhibits excess cellular gluatamate”. Further, in the experiment with C8161 cells [3], the C8161 cell growth result is recorded as “dose-dependent suppression”.
